In publication PMC6675780, “Monitoring activities of receptor tyrosine kinases using a universal adapter in genetically encoded split TEV assays” (Cellular and Molecular Life Sciences: CMLS, 2019):
Like-named read-outs stand apart in the source and are kept apart here.

What was measured:
ERBB4 [1] = target: ERBB4 (Homo sapiens, UniProt Q15303); assay: Split TEV recruitment assay, ERBB4-NTEV-tcs-GV in PC12 cells; settings: for Antagonistic effect on ERBB4 activity: SH2(GRB2)-CTEV adapter, PC12 cells, constant EGFld
Sequence of ERBB4 (Homo sapiens, UniProt Q15303) (Q15303 26-1308): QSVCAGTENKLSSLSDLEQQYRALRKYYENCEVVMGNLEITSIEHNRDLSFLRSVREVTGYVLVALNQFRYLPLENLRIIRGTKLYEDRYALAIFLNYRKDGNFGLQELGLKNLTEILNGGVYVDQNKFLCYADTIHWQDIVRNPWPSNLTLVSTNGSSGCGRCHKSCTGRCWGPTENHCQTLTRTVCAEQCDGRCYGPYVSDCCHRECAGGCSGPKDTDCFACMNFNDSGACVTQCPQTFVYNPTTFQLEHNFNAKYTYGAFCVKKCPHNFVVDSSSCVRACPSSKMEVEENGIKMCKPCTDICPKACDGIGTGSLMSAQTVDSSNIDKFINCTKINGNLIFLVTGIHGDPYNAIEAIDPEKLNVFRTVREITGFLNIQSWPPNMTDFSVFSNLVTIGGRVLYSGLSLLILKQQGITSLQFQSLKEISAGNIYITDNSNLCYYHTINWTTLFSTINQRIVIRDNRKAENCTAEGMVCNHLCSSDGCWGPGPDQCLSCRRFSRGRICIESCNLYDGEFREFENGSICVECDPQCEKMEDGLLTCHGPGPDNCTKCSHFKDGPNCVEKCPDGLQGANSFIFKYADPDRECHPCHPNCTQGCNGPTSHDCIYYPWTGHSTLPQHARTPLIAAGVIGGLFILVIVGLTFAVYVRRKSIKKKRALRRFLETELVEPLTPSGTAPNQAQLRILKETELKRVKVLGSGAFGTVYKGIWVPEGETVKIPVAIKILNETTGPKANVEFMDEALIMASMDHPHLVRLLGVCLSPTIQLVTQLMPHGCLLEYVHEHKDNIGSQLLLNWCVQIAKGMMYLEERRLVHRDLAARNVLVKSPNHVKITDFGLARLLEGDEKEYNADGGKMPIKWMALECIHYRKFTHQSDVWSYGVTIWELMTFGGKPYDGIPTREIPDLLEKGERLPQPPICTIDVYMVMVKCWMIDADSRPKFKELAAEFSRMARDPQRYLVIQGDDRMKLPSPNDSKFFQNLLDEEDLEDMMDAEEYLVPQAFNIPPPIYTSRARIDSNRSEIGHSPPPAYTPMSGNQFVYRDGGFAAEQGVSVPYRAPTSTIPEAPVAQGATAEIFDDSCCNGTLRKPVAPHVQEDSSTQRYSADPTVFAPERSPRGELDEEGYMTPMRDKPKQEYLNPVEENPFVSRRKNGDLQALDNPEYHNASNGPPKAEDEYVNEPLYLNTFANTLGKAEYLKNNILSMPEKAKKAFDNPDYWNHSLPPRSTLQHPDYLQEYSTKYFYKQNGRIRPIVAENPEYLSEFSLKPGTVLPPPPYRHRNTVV
Experimental: Split TEV recruitment assays were run in six replicates per condition in 96-well plates. 50,000 PC12 cells per well were seeded onto poly-L-lysine (PLL)-coated plates. The next day, cells were transfected with assay plasmids using Lipofectamine 2000. For transfection-based assays, no antibiotics were added to the medium. Per 96-well, a receptor-NTEV-tcs-GV fusion plasmid (10 ng), an adapter-CTEV fusion plasmid for either SHC1 (10 ng), SH2(SHC1) (10 ng), SH2(GRB2) (10 ng), SH2(mix) (10 ng), PIK3R1(50 ng), SH2(PIK3R1) (50 ng), or GRB2 (2.5 ng), and an Fluc reporter plasmid (10 ng, Fluc driven by 10x clustered upstream activating sequences coupled to a minimal CMV promoter, 10 × UAS-minCMVp) were used. Additionally, 1 ng of a plasmid constitutively expressing an EYFP that is fused to nuclear localisation sequence (EYFPnuc) driven by a CMV promoter was transfected per 96-well to assess transfection efficiencies (EYFPnuc). In detail, assay plasmids were diluted in 30 µl Opti-MEM (Thermo Fisher Scientific), vortexed, and mixed with 0.2 µl Lipofectamine 2000 per well. The DNA/Lipofectamine/Opti-MEM mix was incubated for 20 min. The medium was removed from the wells and the DNA/Lipofectamine/Opti-MEM mix was added onto the cells. After 2 h of incubation, the maintenance medium without antibiotics was added to the Opti-MEM mix. On day 2, the maintenance medium was replaced by starvation medium. […] 16 h later (day 4), the medium was removed, and cells were lysed using Passive Lysis Buffer (Promega) and luciferase activity was analysed using a dual luciferase assay (Promega) in a Mithras LB 940 Multimode Microplate Reader (Berthold Technologies). […] Error bars are calculated as standard error of the mean (SEM).
(§1) For split TEV recruitment assays in a dose–response format, the following amendments to the general protocol were made. […] Error bars are calculated as standard error of the mean (SEM).

EGFR [2] = target: EGFR (Homo sapiens, UniProt P00533); assay: Split TEV recruitment assay, EGFR-NTEV-tcs-GV in PC12 cells; settings: SH2(GRB2)-CTEV adapter, constant EGF
Sequence of EGFR (Homo sapiens, UniProt P00533) (P00533 25-1210): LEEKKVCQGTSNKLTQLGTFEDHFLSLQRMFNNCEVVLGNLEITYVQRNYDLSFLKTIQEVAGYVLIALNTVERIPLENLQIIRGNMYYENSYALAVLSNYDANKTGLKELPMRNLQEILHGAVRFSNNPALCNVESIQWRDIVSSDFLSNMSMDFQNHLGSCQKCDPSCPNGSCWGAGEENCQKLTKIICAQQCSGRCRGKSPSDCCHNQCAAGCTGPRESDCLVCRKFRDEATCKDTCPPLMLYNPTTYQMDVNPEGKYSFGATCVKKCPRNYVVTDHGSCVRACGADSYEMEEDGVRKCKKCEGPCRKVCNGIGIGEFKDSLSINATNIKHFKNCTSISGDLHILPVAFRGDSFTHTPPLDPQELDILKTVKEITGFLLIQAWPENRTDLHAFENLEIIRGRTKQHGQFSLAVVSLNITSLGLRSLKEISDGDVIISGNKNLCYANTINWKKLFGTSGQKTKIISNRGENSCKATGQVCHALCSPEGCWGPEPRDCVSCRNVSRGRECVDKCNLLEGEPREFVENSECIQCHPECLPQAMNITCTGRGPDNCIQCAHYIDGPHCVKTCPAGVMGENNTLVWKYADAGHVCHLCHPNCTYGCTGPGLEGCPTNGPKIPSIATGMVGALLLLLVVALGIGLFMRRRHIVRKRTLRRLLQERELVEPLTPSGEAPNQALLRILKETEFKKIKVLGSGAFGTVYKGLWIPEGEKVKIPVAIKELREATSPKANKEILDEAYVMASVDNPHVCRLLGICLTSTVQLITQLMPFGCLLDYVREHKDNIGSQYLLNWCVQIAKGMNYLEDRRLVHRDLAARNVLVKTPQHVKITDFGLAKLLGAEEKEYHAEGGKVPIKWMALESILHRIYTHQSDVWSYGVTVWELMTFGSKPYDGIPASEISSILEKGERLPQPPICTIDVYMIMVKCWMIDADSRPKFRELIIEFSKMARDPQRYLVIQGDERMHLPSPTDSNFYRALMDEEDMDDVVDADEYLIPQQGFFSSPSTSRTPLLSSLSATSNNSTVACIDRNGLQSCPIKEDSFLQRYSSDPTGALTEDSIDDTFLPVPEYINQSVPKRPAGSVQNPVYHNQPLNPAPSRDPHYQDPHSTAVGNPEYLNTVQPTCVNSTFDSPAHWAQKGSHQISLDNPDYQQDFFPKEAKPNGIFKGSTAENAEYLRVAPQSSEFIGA
Experimental: (§2) Split TEV recruitment assays were run in six replicates per condition in 96-well plates. 50,000 PC12 cells per well were seeded onto poly-L-lysine (PLL)-coated plates. The next day, cells were transfected with assay plasmids using Lipofectamine 2000. For transfection-based assays, no antibiotics were added to the medium. Per 96-well, a receptor-NTEV-tcs-GV fusion plasmid (10 ng), an adapter-CTEV fusion plasmid for either SHC1 (10 ng), SH2(SHC1) (10 ng), SH2(GRB2) (10 ng), SH2(mix) (10 ng), PIK3R1(50 ng), SH2(PIK3R1) (50 ng), or GRB2 (2.5 ng), and an Fluc reporter plasmid (10 ng, Fluc driven by 10x clustered upstream activating sequences coupled to a minimal CMV promoter, 10 × UAS-minCMVp) were used. […] 16 h later (day 4), the medium was removed, and cells were lysed using Passive Lysis Buffer (Promega) and luciferase activity was analysed using a dual luciferase assay (Promega) in a Mithras LB 940 Multimode Microplate Reader (Berthold Technologies). […] Error bars are calculated as standard error of the mean (SEM).
as §1

ERBB2/ERBB3 = ERBB2/ERBB3 (Homo sapiens, UniProt P04626+P21860); assay: Split TEV recruitment assay, ERBB3-NTEV-tcs-GV with co-transfected ERBB2 in PC12 cells; settings: SH2(GRB2)-CTEV adapter, constant EGFld
Sequence of ERBB2/ERBB3 (P21860 20-1342): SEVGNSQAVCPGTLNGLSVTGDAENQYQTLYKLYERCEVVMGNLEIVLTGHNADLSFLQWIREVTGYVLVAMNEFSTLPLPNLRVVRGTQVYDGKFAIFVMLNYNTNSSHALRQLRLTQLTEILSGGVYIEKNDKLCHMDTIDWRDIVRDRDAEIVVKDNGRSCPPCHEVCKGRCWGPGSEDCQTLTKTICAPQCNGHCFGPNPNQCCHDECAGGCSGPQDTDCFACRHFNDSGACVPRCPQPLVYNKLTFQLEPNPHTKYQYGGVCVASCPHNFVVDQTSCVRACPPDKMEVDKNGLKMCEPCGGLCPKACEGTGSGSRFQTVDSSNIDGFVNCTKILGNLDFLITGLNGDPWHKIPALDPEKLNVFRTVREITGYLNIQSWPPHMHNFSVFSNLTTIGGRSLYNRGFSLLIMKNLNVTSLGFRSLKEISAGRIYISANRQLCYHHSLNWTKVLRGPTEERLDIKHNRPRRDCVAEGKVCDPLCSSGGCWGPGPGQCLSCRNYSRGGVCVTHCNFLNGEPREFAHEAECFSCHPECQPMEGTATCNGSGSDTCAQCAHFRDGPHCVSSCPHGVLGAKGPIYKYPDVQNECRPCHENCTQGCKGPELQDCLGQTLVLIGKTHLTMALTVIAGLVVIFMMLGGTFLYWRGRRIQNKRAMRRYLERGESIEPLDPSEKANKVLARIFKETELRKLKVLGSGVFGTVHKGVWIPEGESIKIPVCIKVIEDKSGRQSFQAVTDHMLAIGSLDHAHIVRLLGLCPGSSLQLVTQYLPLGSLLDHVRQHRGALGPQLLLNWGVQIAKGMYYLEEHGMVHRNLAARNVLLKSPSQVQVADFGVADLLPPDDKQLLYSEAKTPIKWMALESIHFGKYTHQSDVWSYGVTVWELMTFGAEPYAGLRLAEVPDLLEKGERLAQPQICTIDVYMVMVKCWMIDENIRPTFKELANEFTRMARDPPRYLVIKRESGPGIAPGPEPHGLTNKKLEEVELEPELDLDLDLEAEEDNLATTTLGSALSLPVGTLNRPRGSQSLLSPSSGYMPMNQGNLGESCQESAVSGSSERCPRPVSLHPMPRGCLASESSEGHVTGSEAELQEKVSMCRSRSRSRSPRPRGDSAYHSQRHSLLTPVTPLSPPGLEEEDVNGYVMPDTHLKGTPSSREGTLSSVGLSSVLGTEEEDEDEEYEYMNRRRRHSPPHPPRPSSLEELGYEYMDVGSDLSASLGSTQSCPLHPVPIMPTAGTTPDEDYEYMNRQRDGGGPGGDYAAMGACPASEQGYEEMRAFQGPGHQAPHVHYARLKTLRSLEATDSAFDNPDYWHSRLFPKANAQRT
Sequence of ERBB2/ERBB3 (P04626 23-1255): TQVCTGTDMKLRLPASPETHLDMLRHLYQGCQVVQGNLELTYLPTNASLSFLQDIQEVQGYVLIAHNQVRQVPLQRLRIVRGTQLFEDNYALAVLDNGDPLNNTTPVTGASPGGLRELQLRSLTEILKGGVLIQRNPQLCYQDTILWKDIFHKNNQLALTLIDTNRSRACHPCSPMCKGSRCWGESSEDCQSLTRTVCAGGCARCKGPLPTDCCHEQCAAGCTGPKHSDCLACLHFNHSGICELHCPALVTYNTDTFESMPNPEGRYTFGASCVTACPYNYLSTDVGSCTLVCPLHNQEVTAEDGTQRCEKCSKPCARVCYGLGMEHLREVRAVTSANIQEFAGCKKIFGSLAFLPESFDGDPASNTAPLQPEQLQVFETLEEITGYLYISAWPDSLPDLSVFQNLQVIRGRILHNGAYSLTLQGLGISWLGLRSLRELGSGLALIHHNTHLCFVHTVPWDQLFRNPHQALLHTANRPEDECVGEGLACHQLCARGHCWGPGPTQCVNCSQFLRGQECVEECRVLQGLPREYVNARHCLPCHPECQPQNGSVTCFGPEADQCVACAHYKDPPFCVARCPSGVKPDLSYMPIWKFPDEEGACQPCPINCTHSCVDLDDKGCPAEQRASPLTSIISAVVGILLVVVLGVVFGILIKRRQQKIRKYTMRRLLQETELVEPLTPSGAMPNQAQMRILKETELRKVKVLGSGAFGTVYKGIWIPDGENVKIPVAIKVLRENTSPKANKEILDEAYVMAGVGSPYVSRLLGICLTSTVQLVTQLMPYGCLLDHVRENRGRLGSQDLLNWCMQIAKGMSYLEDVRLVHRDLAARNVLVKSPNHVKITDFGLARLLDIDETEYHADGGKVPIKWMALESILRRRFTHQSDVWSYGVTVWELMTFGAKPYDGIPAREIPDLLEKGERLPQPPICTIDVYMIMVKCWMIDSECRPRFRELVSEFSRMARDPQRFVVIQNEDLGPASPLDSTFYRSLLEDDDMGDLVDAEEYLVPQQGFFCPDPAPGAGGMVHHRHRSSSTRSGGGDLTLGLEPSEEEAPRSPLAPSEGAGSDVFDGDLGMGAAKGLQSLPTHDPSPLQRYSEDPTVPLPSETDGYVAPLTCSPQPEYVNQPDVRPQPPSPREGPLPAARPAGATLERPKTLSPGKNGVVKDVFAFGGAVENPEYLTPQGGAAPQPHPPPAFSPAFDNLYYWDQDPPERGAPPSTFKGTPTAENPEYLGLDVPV
Experimental: as §2, §1

PC12 cells = assay: Constitutive Renilla luciferase readout to assess toxic effects; type: cell-based; settings: split TEV dose-response assays
Experimental: For split TEV recruitment assays in a dose–response format, the following amendments to the general protocol were made. For a dose–response assay, all cells on the plate were transfected with the same receptor-NTEV-tcs-GV and adapter-CTEV fusions, the Fluc reporter plasmid, 1 ng of a plasmid constitutively expressing Renilla luciferase driven by a thymidine kinase promoter, and the EYFPnuc expressing plasmid. Renilla luciferase was used to assess toxic effects when applying compounds. For dose-dependent stimulation testing activation, six wells per condition were stimulated using increasing concentrations of an agonist at a semi-logarithmic scale. For assays testing inhibition, cells were treated with increasing concentrations of an antagonist at a semi-logarithmic scale, followed 1 h later by the addition of an agonist at a constant concentration. […] Dose–response data were analysed using the R-based ‘drc’ package, as described before. Error bars are calculated as standard error of the mean (SEM). For ease of presentation and intuition, we have transformed conventionally used IC50 values into pIC50 values. These are calculated from IC50 values using the formula pIC50 = − log10(IC50), with units of molar for IC50 and therefore log(molar) for pIC50.

IGF1R = IGF1R (Homo sapiens, UniProt P08069); assay: Split TEV recruitment assay, IGF1R-NTEV-tcs-GV in PC12 cells; settings: SH2(GRB2)-CTEV adapter, constant IGF1 stimulus
Experimental: as §2, §1

MET = MET (Homo sapiens, UniProt P08581); assay: Split TEV recruitment assay, MET-NTEV-tcs-GV in PC12 cells; settings: SH2(GRB2)-CTEV adapter, constant HGF stimulus
Experimental: as §2, §1

ERBB4 [3] = settings: Biochemical, AID 1204629; cited from earlier work
EGFR [4] = settings: Western blotting, cellular lysates, AID 770081; cited from earlier work
ERBB3 = settings: Biochemical, AID 1204629; cited from earlier work
ERBB2 = settings: Biochemical, AID 1204629; cited from earlier work
EGFR [5] = settings: Biochemical, AID 1204628; cited from earlier work
ERBB4 [6] = test system: ERBB4; set-up: method as in PMID 28743784; settings: split TEV dimerisation assay; cited from earlier work

| Structure (SMILES) | Antagonistic effect on ERBB4 activity (ERBB4 [1]) | Antagonistic effect on EGFR activity (EGFR [2]) | Antagonistic effect on ERBB2/ERBB3 activity (ERBB2/ERBB3) | Inhibition of IGF1R activity (IGF1R) | Concentration at which toxic effects occur (constitutive Renilla luciferase readout) (PC12 cells) | further results |
| --- | --- | --- | --- | --- | --- | --- |
| COc1cc2c(Oc3ccc(NC(=O)C4(C(=O)Nc5ccc(F)cc5)CC4)cc3F)ccnc2cc1OCCCN1CCOCC1 [foretinib] | – | – | – | – | 30 µM | – |
| C=CC(=O)Nc1cccc(Oc2nc(Nc3ccc(N4CCN(C)CC4)cc3OC)ncc2Cl)c1 [WZ4002] | – | – | – | – | – | pIC50 (ERBB4 [3]): 9.37; pIC50 (EGFR [4]): 5.93; IC50 (nM)/KD (ERBB3): 0.42 nM; pIC50 (ERBB3): 9.37; IC50 (nM)/KD (ERBB2): 0.42 nM; pIC50 (ERBB2): 9.37; pIC50 (EGFR [5]): 7.79 |
| CC(=O)S[C@@H]1CC2=CC(=O)CC[C@]2(C)[C@H]2CC[C@@]3(C)[C@@H](CC[C@@]34CCC(=O)O4)[C@H]12 [Spironolactone, spironolactone] | inhibited | inhibited | inhibited | – | – | Selectivity among ERBB receptors (ERBB4 [1]; split TEV recruitment assays, SH2(GRB2) adapter): some selectivity for ERBB4 over EGFR; Selectivity among ERBB receptors (ERBB4 [6]): selectivity for ERBB4 over EGFR |

More lines, main results first:

| Antagonistic effect on ERBB4 activity (ERBB4 [1]) | Antagonistic effect on EGFR activity (EGFR [2]) | Antagonistic effect on ERBB2/ERBB3 activity (ERBB2/ERBB3) | Inhibition of IGF1R activity (IGF1R) | Structure (SMILES) | Concentration at which toxic effects occur (constitutive Renilla luciferase readout) (PC12 cells) | further results |
| --- | --- | --- | --- | --- | --- | --- |
| did not exhibit any antagonistic effects | did not exhibit any antagonistic effects | did not exhibit any antagonistic effects | – | C[C@]12CCC(=O)C=C1C=C[C@@H]1[C@@H]2CC[C@@]2(C)[C@H]1CC[C@@]21CCC(=O)O1 [canrenone] | – | – |
| – | – | – | efficiently inhibited | C[C@]1(O)C[C@@H](c2nc(-c3ccc4ccc(-c5ccccc5)nc4c3)c3c(N)nccn32)C1 [linsitinib] | 30 µM | – |
| – | – | – | did not inhibit | CS(=O)(=O)CCNCc1ccc(-c2ccc3ncnc(Nc4ccc(OCc5cccc(F)c5)c(Cl)c4)c3c2)o1 [Lapatinib, lapatinib] | 30 µM | Inhibition of MET activity (MET): did not inhibit |
